# Reference: ChEMBL document CHEMBL5614392, “Discovery of novel N2-indazole derivatives as phosphodiesterase 4 inhibitors for the treatment of inflammatory bowel disease” (Eur J Med Chem, 2024)
# pIC50: −log10 of the molar value. Activity calls are given as the source filed them. No cut-off for these calls is given here.
# What was measured:
# [1] = target: T1, 3',5'-cyclic-AMP phosphodiesterase 4D (Homo sapiens, UniProt Q08499); assay: Inhibition of PDE4D7 (unknown origin) using FAM-cyclic-3'5'-AMP as substrate at 10 nM incubated for 1 hrs by fluorescence polarization assay relative to control
# T1 sequence (Q08499 whole entry): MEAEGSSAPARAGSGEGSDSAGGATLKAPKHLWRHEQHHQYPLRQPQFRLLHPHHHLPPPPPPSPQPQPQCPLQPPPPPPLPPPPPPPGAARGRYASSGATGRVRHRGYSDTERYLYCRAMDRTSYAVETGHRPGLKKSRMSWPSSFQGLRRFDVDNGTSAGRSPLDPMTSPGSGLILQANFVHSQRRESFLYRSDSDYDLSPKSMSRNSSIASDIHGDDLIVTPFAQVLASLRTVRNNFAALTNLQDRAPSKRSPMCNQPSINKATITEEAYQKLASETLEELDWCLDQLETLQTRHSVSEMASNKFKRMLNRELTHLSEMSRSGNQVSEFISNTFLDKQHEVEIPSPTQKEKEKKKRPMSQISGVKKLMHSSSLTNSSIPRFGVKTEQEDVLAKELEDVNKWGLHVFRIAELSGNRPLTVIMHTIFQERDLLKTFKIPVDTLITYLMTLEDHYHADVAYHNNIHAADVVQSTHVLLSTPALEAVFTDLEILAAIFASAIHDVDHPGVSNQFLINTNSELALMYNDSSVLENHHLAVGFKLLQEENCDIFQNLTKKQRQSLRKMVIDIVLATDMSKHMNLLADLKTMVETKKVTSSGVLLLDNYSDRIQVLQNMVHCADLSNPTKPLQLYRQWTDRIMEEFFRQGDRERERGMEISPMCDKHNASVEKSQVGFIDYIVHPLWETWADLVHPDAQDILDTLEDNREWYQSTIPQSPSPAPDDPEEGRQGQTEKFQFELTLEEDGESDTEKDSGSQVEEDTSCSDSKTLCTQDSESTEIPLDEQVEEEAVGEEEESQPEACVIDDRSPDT
# [2] = target: T1, 3',5'-cyclic-AMP phosphodiesterase 4D; assay: Inhibition of PDE4D7 (unknown origin) using FAM-cyclic-3'5'-AMP as substrate at 100 nM incubated for 1 hrs by fluorescence polarization assay relative to control
# [3] = Toxicity in ketamine/xylazine-induced anesthetic male C57BL/6J mouse model assessed as emetogenic potential by measuring reduction in anesthesia duration at 0.5 mg/kg, po preadministered with compound for 15 mins followed by ketamine/xylazine administration; assay type: organism-based; details: in vivo, 0.25 h
# [4] = target: T1, 3',5'-cyclic-AMP phosphodiesterase 4D; assay: Inhibition of PDE4D7 (unknown origin) using FAM-cyclic-3'5'-AMP as substrate incubated for 1 hrs by fluorescence polarization assay
# [5] = Selectivity ratio of IC50 for PDE9A (unknown origin) to IC50 for PDE4D7 (unknown origin)
# [6] = Selectivity ratio of IC50 for PDE7A (unknown origin) to IC50 for PDE4D7 (unknown origin)
# [7] = Selectivity ratio of IC50 for PDE3B (unknown origin) to IC50 for PDE4D7 (unknown origin)
# [8] = target: High affinity cGMP-specific 3',5'-cyclic phosphodiesterase 9A (Homo sapiens) (UniProt O76083); assay: Inhibition of PDE9A (unknown origin) using FAM-cyclic-3'5'-AMP as substrate at 10 uM incubated for 1 hrs by fluorescence polarization assay relative to control
# Chain of High affinity cGMP-specific 3',5'-cyclic phosphodiesterase 9A (Homo sapiens) (O76083 whole entry): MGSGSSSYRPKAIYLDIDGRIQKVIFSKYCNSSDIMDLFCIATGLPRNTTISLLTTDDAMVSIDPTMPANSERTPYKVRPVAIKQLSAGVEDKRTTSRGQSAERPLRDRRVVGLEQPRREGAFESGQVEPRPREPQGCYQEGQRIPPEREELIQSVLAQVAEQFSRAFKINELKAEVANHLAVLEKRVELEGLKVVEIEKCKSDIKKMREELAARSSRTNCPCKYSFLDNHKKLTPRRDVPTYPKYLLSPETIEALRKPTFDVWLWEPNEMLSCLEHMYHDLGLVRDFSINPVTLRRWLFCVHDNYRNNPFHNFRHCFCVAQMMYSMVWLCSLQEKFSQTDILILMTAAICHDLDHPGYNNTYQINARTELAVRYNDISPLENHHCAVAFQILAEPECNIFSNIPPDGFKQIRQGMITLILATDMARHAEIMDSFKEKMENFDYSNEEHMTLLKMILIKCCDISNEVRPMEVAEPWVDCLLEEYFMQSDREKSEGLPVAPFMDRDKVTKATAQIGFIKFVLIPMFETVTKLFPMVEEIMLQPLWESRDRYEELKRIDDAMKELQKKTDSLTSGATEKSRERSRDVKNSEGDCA
# [9] = target: cGMP-inhibited 3',5'-cyclic phosphodiesterase 3B (Homo sapiens) (UniProt Q13370); assay: Inhibition of PDE3B (unknown origin) using FAM-cyclic-3'5'-AMP as substrate at 10 uM incubated for 1 hrs by fluorescence polarization assay relative to control
# Chain of cGMP-inhibited 3',5'-cyclic phosphodiesterase 3B (Homo sapiens) (Q13370 whole entry, looked up): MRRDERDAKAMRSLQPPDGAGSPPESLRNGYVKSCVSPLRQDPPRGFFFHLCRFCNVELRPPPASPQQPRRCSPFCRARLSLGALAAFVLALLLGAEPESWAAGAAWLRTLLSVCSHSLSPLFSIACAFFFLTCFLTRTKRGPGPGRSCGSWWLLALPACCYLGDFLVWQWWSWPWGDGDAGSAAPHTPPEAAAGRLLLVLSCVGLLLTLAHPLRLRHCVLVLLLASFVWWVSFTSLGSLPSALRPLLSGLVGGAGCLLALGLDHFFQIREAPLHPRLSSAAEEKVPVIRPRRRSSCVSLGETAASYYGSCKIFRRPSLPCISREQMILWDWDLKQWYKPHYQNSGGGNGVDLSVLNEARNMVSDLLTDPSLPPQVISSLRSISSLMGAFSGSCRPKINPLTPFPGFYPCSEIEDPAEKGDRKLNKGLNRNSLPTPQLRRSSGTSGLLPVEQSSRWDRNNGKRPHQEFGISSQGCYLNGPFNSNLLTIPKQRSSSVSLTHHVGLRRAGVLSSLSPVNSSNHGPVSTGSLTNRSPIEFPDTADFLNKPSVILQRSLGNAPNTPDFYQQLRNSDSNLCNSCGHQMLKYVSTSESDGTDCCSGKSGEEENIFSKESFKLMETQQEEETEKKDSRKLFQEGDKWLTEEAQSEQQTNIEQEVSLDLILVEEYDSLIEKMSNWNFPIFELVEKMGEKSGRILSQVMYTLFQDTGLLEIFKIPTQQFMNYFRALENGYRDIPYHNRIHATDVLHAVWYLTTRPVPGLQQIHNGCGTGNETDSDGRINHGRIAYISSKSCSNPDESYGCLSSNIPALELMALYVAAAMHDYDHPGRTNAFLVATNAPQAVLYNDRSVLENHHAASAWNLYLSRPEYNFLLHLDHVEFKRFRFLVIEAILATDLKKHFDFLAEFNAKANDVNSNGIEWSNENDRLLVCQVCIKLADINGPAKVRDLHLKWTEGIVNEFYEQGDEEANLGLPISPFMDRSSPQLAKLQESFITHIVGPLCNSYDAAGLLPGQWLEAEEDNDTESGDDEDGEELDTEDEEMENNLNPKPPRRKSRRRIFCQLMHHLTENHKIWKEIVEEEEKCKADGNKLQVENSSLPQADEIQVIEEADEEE
# [10] = test system: HT-22; assay: Cytotoxicity against mouse HT-22 cells at 10 to 30 uM; assay type: toxicity, cell-based; details: ht-22, 30 µM, dose 10-30 µM
# [11] = Acute toxicity in male C57BL/6J mouse assessed as animal death at 0.1 g/Kg, po measured within 10 to 24 hrs; assay type: organism-based; details: in vivo, 100 mg/kg, time 10-24 hrs
# [12] = Selectivity ratio of IC50 for PDE8A (unknown origin) to IC50 for PDE4D7 (unknown origin)
# [13] = target: High affinity 3',5'-cyclic-AMP phosphodiesterase 7A (Homo sapiens) (UniProt Q13946); assay: Inhibition of PDE7A (unknown origin) using FAM-cyclic-3'5'-AMP as substrate at 10 uM incubated for 1 hrs by fluorescence polarization assay relative to control
# Chain of High affinity 3',5'-cyclic-AMP phosphodiesterase 7A (Homo sapiens) (Q13946 whole entry): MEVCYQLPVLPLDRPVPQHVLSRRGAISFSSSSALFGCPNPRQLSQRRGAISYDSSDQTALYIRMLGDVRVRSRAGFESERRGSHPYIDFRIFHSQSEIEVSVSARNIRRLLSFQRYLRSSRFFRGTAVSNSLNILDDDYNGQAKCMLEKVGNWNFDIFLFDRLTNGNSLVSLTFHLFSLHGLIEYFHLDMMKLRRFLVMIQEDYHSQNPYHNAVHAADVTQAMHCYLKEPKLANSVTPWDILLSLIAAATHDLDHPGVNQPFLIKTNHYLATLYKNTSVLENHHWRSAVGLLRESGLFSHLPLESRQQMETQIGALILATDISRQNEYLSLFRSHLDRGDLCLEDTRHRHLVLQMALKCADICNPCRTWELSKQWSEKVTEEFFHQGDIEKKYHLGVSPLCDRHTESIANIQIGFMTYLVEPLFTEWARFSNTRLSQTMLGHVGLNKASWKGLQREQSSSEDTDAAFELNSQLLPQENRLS
# [14] = target: High affinity cAMP-specific and IBMX-insensitive 3',5'-cyclic phosphodiesterase 8A (Homo sapiens) (UniProt O60658); assay: Inhibition of PDE8A (unknown origin) using FAM-cyclic-3'5'-AMP as substrate at 10 uM incubated for 1 hrs by fluorescence polarization assay relative to control
# Chain of High affinity cAMP-specific and IBMX-insensitive 3',5'-cyclic phosphodiesterase 8A (Homo sapiens) (O60658 whole entry): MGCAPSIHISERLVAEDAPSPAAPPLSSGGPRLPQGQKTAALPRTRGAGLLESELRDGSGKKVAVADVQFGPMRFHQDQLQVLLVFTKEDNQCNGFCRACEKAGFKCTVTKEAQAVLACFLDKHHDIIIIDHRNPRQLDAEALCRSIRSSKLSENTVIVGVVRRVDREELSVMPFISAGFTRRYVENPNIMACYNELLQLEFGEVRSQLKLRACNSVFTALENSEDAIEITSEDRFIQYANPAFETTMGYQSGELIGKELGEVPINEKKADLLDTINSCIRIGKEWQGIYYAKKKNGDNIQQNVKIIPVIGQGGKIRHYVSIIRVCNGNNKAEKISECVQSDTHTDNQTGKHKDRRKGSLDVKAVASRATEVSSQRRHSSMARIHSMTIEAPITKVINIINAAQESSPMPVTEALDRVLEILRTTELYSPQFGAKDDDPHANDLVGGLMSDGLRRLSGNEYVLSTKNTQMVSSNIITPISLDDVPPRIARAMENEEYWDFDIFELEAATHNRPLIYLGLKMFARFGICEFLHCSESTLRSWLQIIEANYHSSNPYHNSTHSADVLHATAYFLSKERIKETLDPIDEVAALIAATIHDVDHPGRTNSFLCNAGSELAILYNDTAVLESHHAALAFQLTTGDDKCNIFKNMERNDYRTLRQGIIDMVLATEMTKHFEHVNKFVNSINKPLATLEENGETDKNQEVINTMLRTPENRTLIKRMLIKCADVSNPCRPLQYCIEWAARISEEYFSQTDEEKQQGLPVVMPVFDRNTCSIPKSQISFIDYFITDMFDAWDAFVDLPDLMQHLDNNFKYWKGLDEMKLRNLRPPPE
# [15] = target: T1, 3',5'-cyclic-AMP phosphodiesterase 4D; assay: Inhibition of PDE4D7 (unknown origin) using FAM-cyclic-3'5'-AMP as substrate at 1 uM incubated for 1 hrs by fluorescence polarization assay relative to control
# [16] = Toxicity in ketamine/xylazine-induced anesthetic male C57BL/6J mouse model assessed as emetogenic potential by measuring reduction in anesthesia duration at 5 to 10 mg/kg, po preadministered with compound for 15 mins followed by ketamine/xylazine administration; assay type: organism-based; details: in vivo, 0.25 h, dose 5-10 mg/kg
# [17] = Oral bioavailability in male C57BL/6J mouse; assay type: ADME, organism-based; details: in vivo
# [18] = Acute toxicity in po dosed male C57BL/6J mouse assessed as lethal dose measured after 14 days; assay type: organism-based; details: in vivo, time 14 day
# [19] = target: Phosphodiesterase 4 (Homo sapiens, UniProt P27815+Q08499+Q07343+Q08493); assay: Inhibition of PDE4 (unknown origin); assay type: protein assay
# [20] = target: Phosphodiesterase 7 (Homo sapiens, UniProt Q13946+Q9NP56); assay: Inhibition of PDE7 (unknown origin); assay type: protein assay
# [21] = test system: Mus musculus; assay: Antiinflammatory activity against DSS-induced colitis C57BL/6J mouse model assessed as decrease in body weight loss at 3 mg/kg, po pretreated with DSS for 10 days followed by twice daily compound administration for 8 days starting from day 3 to day 10 relative to control; assay type: functional; parameters: scale not given: the % may be the effect or the level left; details: time 8 day
# [22] = test system: Mus musculus; assay: Antiinflammatory activity against DSS-induced colitis C57BL/6J mouse model assessed as increase in colon length at 3 mg/kg, po pretreated with DSS for 10 days followed by twice daily compound administration for 8 days starting from day 3 to day 10; assay type: functional, organism-based; details: time 8.0 day
# [23] = test system: RAW264.7; assay: Antiinflammatory activity against mouse RAW264.7 cells assessed as inhibition of LPS-induced IL-6 mRNA production at 10 uM incubated for 24 hrs by SYBR green quantitative PCR analysis; assay type: functional, cell-based
# [24] = test system: Mus musculus; assay: Antiinflammatory activity against DSS-induced colitis C57BL/6J mouse model assessed as decrease in disease activity index at 3 mg/kg, po pretreated with DSS for 10 days followed by twice daily compound administration for 8 days starting from day 3 to day 10 relative to control; assay type: functional, organism-based; details: time 8.0 day
# [25] = test system: RAW264.7; assay: Antiinflammatory activity against mouse RAW264.7 cells assessed as inhibition of LPS-induced TNF-alpha mRNA production at 10 uM incubated for 24 hrs by SYBR green quantitative PCR analysis; assay type: functional, cell-based
# [26] = test system: Mus musculus; assay: Antiinflammatory activity against DSS-induced colitis C57BL/6J mouse model assessed as decrease in body weight loss at 3 mg/kg, po pretreated with DSS for 10 days followed by twice daily compound administration for 8 days starting from day 3 to day 10 and measured on day 6; assay type: functional, organism-based; details: time 4.0 day
# [27] = test system: RAW264.7; assay: Antiinflammatory activity against mouse RAW264.7 cells assessed as inhibition of LPS-induced iNOS mRNA production at 10 uM incubated for 24 hrs by SYBR green quantitative PCR analysis; assay type: functional, cell-based
# [28] = target: 3',5'-cyclic-AMP phosphodiesterase 4B (Homo sapiens, UniProt Q07343); assay: Inhibition of recombinant human PDE4B catalytic domain extracted from baculovirus infected Sf9 cells using […] preincubated for 20 mins followed by 2 mins incubation at 65 degreeC and measured 10 mins after substrate addition by scintillation counter
# Chain of 3',5'-cyclic-AMP phosphodiesterase 4B (Q07343 whole entry, the tested form may be a part): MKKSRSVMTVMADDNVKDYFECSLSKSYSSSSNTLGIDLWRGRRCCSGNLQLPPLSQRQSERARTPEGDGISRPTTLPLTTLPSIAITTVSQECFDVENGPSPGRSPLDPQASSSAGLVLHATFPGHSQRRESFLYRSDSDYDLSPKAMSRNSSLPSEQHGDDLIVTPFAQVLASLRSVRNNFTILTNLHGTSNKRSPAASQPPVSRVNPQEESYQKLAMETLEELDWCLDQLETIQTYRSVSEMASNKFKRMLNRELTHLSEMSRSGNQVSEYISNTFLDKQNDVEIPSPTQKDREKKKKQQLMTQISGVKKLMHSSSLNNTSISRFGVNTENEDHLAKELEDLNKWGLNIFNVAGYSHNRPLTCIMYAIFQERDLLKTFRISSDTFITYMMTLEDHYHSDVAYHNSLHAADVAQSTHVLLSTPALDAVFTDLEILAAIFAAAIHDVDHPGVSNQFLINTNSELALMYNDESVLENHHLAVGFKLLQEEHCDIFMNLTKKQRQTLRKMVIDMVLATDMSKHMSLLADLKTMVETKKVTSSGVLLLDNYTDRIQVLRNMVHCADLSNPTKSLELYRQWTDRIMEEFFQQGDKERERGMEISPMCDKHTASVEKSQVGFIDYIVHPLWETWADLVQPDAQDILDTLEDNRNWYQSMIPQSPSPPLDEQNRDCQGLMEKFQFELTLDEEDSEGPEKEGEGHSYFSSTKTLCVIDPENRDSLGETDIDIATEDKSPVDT
# [29] = target: T1, 3',5'-cyclic-AMP phosphodiesterase 4D; assay: Inhibition of human recombinant PDE4D using radioactively labelled cAMP and cAMP as substrate incubated for 1 hrs by luminescence based analysis
# [30] = target: T1, 3',5'-cyclic-AMP phosphodiesterase 4D; assay: Potency index, ratio of TPA16 IC50 to test compound IC50 for inhibition of PDE4D7 (unknown origin) using FAM-cyclic-3'5'-AMP as substrate incubated for 1 hrs by fluorescence polarization assay
inhibition [1] [%],inhibition [2] [%],pIC50 [4],SMILES,also measured
7,9,–,COc1ccc(N2CC(Oc3ccccc3)C2)c2cn(C3CC3)nc12,–
–,–,–,COc1ccc(C2CNC(=O)C2)cc1OC1CCCC1 (stereo unspecified) [ROLIPRAM],Activity [3]: Toxic
–,24,–,COc1cc(-c2ccc(OC(F)F)c3nn(C4CC4)cc23)cc2c1OCO2,–
4,18,–,CNc1cc(-c2ccc(OC(F)F)c3nn(C4CC4)cc23)ccn1,–
5,6,–,COc1ccc(-c2cccc(C#N)c2)c2cn(C3CC3)nc12,–
7,21,–,COc1cc(-c2ccc(OC(F)F)c3nn(C4CC4)cc23)ccn1,–
4,12,–,FC(F)Oc1ccc(N2CCOCC2)c2cn(C3CC3)nc12,–
18,16,–,COc1ccc(-n2ccc3cc(C#N)ccc32)c2cn(C3CC3)nc12,–
12,38,–,Fc1cc(-c2ccc(OC(F)F)c3nn(C4CC4)cc23)ccn1,–
6,14,–,FC(F)Oc1ccc(-c2ccncc2Cl)c2cn(C3CC3)nc12,–
3,11,–,FC(F)Oc1ccc(-c2ccnc(N3CCOCC3)c2)c2cn(C3CC3)nc12,–
–,4,–,COc1cc(OC)cc(-c2ccc(OC(F)F)c3nn(C4CC4)cc23)c1,–
32,71,7.48,COc1ccc(-c2cccc(CN)c2)c2cn(C3CC3)nc12,–
–,18,6.42,COc1ccc(-c2cccc(C#N)c2)c2cn(C3(C(=O)NCC(C)C)CC3)nc12,inhibition [15]: 81%
28,79,7.65,FC(F)Oc1ccc(-c2ccnc(Cl)c2)c2cn(C3CC3)nc12,–
4,4,–,CC(C)(O)C1CN(c2ccc(OC(F)F)c3nn(C4CC4)cc23)C1,–
–,–,–,CCOc1cc([C@@H](CS(C)(=O)=O)N2C(=O)c3cccc(NC(C)=O)c3C2=O)ccc1OC,Activity [3]: Toxic

inhibition [1] [%],inhibition [2] [%],pIC50 [4],SMILES,also measured
–,22,–,NC(=O)c1cccnc1Oc1cc(-c2ccc(OC(F)F)c3nn(C4CC4)cc23)cc2c1OCO2,–
3,15,–,Fc1cnccc1-c1ccc(OC(F)F)c2nn(C3CC3)cc12,–
3,3,–,COc1ccc(-c2cc(C#N)cc(Cc3ccccc3)c2)c2cn(C3CC3)nc12,–
5,14,–,CC(C)CNC(=O)c1cc(-c2ccc(OC(F)F)c3nn(C4CC4)cc23)ccn1,–
–,–,–,OCCN(CCO)c1nc(N2CCCCC2)c2nc(N(CCO)CCO)nc(N3CCCCC3)c2n1 [DIPYRIDAMOLE],IC50 [19]: 2800 nM; IC50 [20]: 600 nM
37,68,7.64,COc1ccc(-c2cccc(C(C)=O)c2)c2cn(C3CC3)nc12,–
38,88,7.87,CC(=O)c1cccc(-c2ccc(OC(F)F)c3nn(C4CC4)cc23)c1,Activity [10]: Toxic
26,68,7.42,COc1ccc(-c2cccc(C(N)=O)c2)c2cn(C3CC3)nc12,–
–,8,< 6.00,COc1ccc(-c2cccc(C(C)=O)c2)c2cn(C3(C(=O)NC4CCCC4)CC3)nc12,inhibition [15]: 4%
3,4,–,COc1ccc(-c2ccc(OC)c3nn(C4CC4)cc23)cc1OC,inhibition [4]: inactive
–,–,–,O=C(Nc1c(Cl)cncc1Cl)c1ccc(OC(F)F)c(OCC2CC2)c1 [ROFLUMILAST],Activity [21]: 7.3%; Activity [22]: Active; Activity [3]: Toxic; Activity [23]: Active; Activity [24]: Active; Activity [25]: Active; Activity [26]: Active; Activity [27]: Active
–,4,< 6.00,COc1ccc(-c2cccc(C(C)=O)c2)c2cn(C3(C(=O)NCC(C)C)CC3)nc12,inhibition [15]: 7%
–,2,–,N#Cc1cccnc1Oc1cc(-c2ccc(OC(F)F)c3nn(C4CC4)cc23)cc2c1OCO2,–
–,–,–,COc1ccc(-c2ccc3[nH]c(=O)ccc3c2)n2cc(C(F)(F)F)nc12,pIC50 [28]: > 7.00
–,–,–,COc1ccc(-c2cccc(C(C)=O)c2)n2nc(C3(C(=O)NC4CCCC4)CC3)nc12,pIC50 [29]: > 6.30
34,73,7.56,COc1cc(-c2ccc(OC)c3nn(C4CC4)cc23)cc(OC)c1OC,Ratio IC50 [30]: > 20
8,16,–,O=C(NCc1ccccc1)c1cc(-c2ccc(OC(F)F)c3nn(C4CC4)cc23)ccn1,–

SMILES,inhibition [1] [%],inhibition [2] [%],pIC50 [4],also measured
FC(F)Oc1ccc(-c2ccncc2)c2cn(C3CC3)nc12,34,77,7.70,Ratio IC50 [5]: > 502; Ratio IC50 [6]: > 502; Ratio IC50 [7]: > 502; inhibition [8]: 4%; inhibition [9]: 8%; Activity [10]: Non-Toxic; Activity [11]: Toxic; Ratio IC50 [12]: > 502; inhibition [13]: 13%; inhibition [14]: 5%
COc1ccc(-c2ccncc2)c2cn(C3CC3)nc12,46,89,8.00,Activity [16]: Non-Toxic; Ratio IC50 [5]: > 990; Ratio IC50 [6]: > 990; Ratio IC50 [7]: > 990; bioavailability [17]: 3.4%; inhibition [8]: 7%; inhibition [9]: 11%; Activity [10]: Non-Toxic; Ratio IC50 [12]: > 990; inhibition [13]: 13%; inhibition [14]: 10%; LD50 at 336 h [18]: 400 mg/kg
